Here are results for 23 compounds from ChEMBL document CHEMBL5726294, “Derivatives of 6-(2,3-dichlorophenyl)-1,2,4-triazin-5-amine” (2019).

Values joined by “and” are separate entries in the source; they are usually repeats but may differ in a detail not shown here. Equal values may be shown once.

Test [1] addresses T1, Sodium channel protein type 9 subunit alpha (Homo sapiens, UniProt Q15858). Put plainly: (§1) Ex-Vivo Potencies in Tonic state: The potencies of the compounds provided herein to block specific Na+ channels was measured using automated patch clamp electrophysiologically of Nav1.7 sodium channels (human SCN9A gene) stably expressed in CHO cells using the IonWorks Barracuda system. Currents were measured from the whole cell patch configuration. From a holding potential of −90 mV, membranes were subjected to a 200 ms pre-pulse to −120 mV, then pulsed to 0 mV to measure blockade of the tonic (resting) state. Inactivated state block was elicited by repolarization to −100 mV (20 ms pulse duration), followed by depolarization to 0 mV (20 ms pulse duration). Peak inward Na+ currents were measured in the presence of vehicle or various concentrations of the test compound to determine the percent block of current. It counts as cell-based. For orientation: Patch clamp records ionic current or voltage across a cell membrane.

Test [2] addresses T1, Sodium channel protein type 9 subunit alpha. Described as §1, with “Inactivated” for “Tonic”. Type of test: cell-based.

T1 sequence (Q15858 whole entry): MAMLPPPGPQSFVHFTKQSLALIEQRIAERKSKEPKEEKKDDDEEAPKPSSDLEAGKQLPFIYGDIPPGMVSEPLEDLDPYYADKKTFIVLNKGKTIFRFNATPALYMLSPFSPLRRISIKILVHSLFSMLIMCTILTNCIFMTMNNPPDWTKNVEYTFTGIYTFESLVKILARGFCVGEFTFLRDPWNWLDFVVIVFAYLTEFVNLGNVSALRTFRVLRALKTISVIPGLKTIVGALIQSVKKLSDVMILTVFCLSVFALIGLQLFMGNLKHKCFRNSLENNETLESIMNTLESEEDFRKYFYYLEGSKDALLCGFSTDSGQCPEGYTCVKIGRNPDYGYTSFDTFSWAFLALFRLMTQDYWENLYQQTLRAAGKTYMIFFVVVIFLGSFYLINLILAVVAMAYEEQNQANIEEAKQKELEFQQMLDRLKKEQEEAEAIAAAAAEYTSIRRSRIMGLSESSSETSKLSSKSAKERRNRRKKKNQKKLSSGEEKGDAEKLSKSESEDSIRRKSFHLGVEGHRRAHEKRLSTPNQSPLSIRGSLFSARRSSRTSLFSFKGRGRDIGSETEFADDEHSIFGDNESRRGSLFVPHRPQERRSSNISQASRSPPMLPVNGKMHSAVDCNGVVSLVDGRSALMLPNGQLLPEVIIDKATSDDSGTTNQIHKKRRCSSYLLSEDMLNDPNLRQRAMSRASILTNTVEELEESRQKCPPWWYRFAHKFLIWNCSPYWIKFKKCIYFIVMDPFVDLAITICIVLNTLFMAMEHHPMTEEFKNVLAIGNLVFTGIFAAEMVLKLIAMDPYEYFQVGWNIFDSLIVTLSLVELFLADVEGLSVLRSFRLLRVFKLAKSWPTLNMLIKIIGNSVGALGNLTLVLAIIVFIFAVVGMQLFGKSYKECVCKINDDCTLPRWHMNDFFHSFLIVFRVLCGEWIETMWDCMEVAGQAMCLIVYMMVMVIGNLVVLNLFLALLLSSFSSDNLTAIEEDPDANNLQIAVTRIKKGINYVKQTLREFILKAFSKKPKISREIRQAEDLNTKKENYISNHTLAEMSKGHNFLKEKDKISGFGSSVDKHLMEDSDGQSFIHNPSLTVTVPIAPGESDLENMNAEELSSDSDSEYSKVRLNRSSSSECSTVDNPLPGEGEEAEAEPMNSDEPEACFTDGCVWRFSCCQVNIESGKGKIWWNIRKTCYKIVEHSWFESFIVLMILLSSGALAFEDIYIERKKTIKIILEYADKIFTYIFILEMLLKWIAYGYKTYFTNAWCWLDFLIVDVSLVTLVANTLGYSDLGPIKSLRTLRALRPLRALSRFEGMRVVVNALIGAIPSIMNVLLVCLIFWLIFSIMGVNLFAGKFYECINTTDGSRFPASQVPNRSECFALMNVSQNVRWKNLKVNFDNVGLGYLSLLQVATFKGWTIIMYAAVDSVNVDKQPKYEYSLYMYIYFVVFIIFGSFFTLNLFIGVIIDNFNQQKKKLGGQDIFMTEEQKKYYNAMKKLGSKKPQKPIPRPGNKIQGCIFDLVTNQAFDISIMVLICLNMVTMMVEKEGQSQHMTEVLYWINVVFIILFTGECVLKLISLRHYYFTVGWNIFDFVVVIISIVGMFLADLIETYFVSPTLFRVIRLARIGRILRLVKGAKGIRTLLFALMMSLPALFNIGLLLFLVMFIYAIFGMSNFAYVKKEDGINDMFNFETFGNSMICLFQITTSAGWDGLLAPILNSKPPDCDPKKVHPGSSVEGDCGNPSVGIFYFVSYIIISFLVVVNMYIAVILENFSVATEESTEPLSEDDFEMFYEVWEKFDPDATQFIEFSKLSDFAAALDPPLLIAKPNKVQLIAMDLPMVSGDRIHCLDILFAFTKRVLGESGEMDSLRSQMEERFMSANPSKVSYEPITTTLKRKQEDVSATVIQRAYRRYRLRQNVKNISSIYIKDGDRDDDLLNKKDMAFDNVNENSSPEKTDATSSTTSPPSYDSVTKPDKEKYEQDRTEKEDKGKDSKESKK

On to `COCCOCCOCC(C)Nc1nnc(-c2cccc(Cl)c2Cl)c(N)n1` (centres undefined), for which the IC50 in test [1] is > 200 µM; in test [2] it was < 50 µM.
Taken in the same sequence, the figures for `C[C@@H]1CN(c2nnc(-c3cccc(Cl)c3Cl)c(N)n2)C[C@H](C)N1` were 112 µM and < 50 µM.
For the compound `Nc1nc(N2CCN(CC(O)CO)[C@H](CO)C2)nnc1-c1cccc(Cl)c1Cl` (some centres undefined), the IC50 was > 200 µM in test [1]; 293 µM and 243 µM in test [2].
With `COCCOCCOCCOc1ccc(-c2nnc(N)nc2N)c(Cl)c1Cl`, the IC50 in test [2] is > 300 µM.
Regarding `Nc1nc(N2CCN(C3CCNCC3)CC2)nnc1-c1cccc(Cl)c1Cl`, the 50% inhibitory concentration (IC50) in test [1] is > 200 µM; in test [2], 272 µM.
Consider `Nc1nc(NC2CCNCC2)nnc1-c1cccc(Cl)c1Cl`, for which the IC50 in test [2] was > 300 µM.
Same read-out and setting: with `Nc1nc(NCCOCCNCC(=O)O)nnc1-c1cccc(Cl)c1Cl` the figure was > 300 µM.
With `Nc1nc(N2CCN(C3CCOCC3)CC2)nnc1-c1cccc(Cl)c1Cl`, the results for the IC50 in test [1] and in test [2] were 147 µM and < 50 µM, respectively.
Turning to `Nc1nc(N2CCN[C@H](CO)C2)nnc1-c1cc(F)cc(Cl)c1Cl`, the results for the IC50 in test [1] and in test [2] were > 200 µM and 72.6 µM, respectively.
Taken in the same sequence, the figures for `Nc1nc(N2CCN[C@H](CO)C2)nnc1-c1cccc(Cl)c1Cl` were > 200 µM and 71.8 µM.
As to `Nc1nc(N2CC(O)(C(F)(F)F)C2)nnc1-c1cccc(Cl)c1Cl`, the half-inhibitory concentration (IC50) in test [1] is > 200 µM; in test [2], 291 µM and 249 µM.
`Nc1nc(N2CCC(O)(C(F)(F)F)CC2)nnc1-c1cccc(Cl)c1Cl`: the IC50 was > 200 µM and 165 µM in test [1]; 73.9 µM and 59.1 µM in test [2].
Regarding `Nc1nc(N2CC(O)C2)nnc1-c1cccc(Cl)c1Cl`, the concentration for half-maximal inhibition (IC50) in test [1] was > 132 µM.
Turning to `COCCOCCOCCN(C)C1CCN(c2nnc(-c3cccc(Cl)c3Cl)c(N)n2)CC1`, the 50% inhibitory concentration (IC50) in test [1] is 92.5 µM; in test [2], < 50 µM.
The corresponding values for `C[C@@H]1CN(c2nnc(-c3cc(F)cc(Cl)c3Cl)c(N)n2)C[C@H](C)N1` are 92.4 µM and < 50 µM.
The corresponding values for `Nc1nc(N2CCN[C@@H](CO)C2)nnc1-c1cc(F)cc(Cl)c1Cl` are > 200 µM and 111 µM.
Take `CC(CO)Nc1nnc(-c2cccc(Cl)c2Cl)c(N)n1` (centres undefined): the concentration for half-maximal inhibition (IC50) in test [1] is > 200 µM; in test [2], 127 µM.
`COCCOCCOCCN1CCN(c2nnc(-c3cccc(Cl)c3Cl)c(N)n2)CC1`: the half-maximal inhibitory concentration (IC50) was > 200 µM in test [1]; 54.9 µM and < 50 µM in test [2].
In the case of `Nc1nc(N2CC(OCC(F)(F)F)C2)nnc1-c1cccc(Cl)c1Cl`, in test [2], the half-inhibitory concentration (IC50) is > 300 µM.
Consider `Nc1nc(N2CC(N)C2)nnc1-c1cccc(Cl)c1Cl`, for which the IC50 in test [2] was 284 µM.
Consider `COCCOCCOCC(=O)N1CCN(c2nnc(-c3cc(F)cc(Cl)c3Cl)c(N)n2)CC1`, for which the IC50 is > 200 µM in test [1]; 146 µM and 220 µM in test [2].
With `Nc1nc(N2CCNCC2)nnc1-c1cc(F)cc(Cl)c1Cl`, the IC50 was > 200 µM in test [1] and 84.5 µM in test [2].
For the compound `COCCOCCOCCN1CCC(Nc2nnc(-c3cc(F)cc(Cl)c3Cl)c(N)n2)CC1`, the IC50 in test [1] is > 200 µM.

A word on the IC50: it is the concentration that gives 50% inhibition.
